This passage reports IC50 results from US20110098288A1, “SULFONAMIDES AS ZAP-70 INHIBITORS” (priority 2008, published 2011).

The assay concerns the target T1, ZAP-70 (Homo sapiens, UniProt P43403).
T1 construct: endogenous in cells; host or cells: cell lysate
T1 sequence (P43403 1-619): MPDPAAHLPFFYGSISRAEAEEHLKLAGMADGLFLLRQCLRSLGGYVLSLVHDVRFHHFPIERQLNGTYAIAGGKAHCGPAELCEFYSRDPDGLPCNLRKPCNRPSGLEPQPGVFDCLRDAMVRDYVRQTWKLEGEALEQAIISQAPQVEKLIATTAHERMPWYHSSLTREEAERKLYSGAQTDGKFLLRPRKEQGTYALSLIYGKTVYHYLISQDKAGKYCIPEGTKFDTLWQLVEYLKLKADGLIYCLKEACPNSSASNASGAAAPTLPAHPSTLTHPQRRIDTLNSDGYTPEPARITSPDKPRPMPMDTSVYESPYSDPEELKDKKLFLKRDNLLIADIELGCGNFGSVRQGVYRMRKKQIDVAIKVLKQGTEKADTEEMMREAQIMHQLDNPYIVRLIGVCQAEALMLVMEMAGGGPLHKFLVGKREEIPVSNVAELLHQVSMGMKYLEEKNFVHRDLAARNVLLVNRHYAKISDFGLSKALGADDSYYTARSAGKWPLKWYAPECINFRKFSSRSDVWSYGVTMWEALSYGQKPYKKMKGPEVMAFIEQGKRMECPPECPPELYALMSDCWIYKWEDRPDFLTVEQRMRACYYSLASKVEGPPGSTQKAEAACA
Kind of assay: ZAP-70 kinobeads assay. The note with it: competition with immobilized aminopyrido-pyrimidine ligand 24 in cell lysate; ZAP-70 detected by dot blot. Type of assay: binding. The method, then:
The compounds of the present invention as described in the previous examples can be tested in the ZAP-70 kinobeads assay as described (EP-A 1862802 and WO-A 2007/137867). Briefly, test compounds (at various concentrations) and the affinity matrix with the immobilized aminopyrido-pyrimidine ligand 24 are added to cell lysate aliquots and allowed to bind to the proteins in the lysate sample. After the incubation time the beads with captured proteins are separated from the lysate. Bound proteins are then eluted and the presence ZAP-70 is detected and quantified using a specific antibody in a dot blot procedure and the Odyssey infrared detection system. Conventionally, ZAP-70 kinase activity can be measured using purified or recombinant enzyme in a solution-based assay with protein or peptide substrates (Isakov et al., 1996, J. Biol. Chem. 271(26), 15753-15761; Moffat et al., 1999, Bioorg. Med. Chem. Letters 9, 3351-3356).
The term IC50 denotes the midpoint of a concentration-inhibition curve. Higher therefore signals weaker potency in that assay. In the case of `COc1cc(Nc2ncc(F)c(Nc3ccc(OCCCN4CCCCC4)cc3NS(C)(=O)=O)n2)cc(OC)c1OC` [Example 185, N-(2-(5-fluoro-2-(3,4,5-trimethoxyphenylamino)pyrimidin-4-ylamino)-5-(3-(piperidin-1-yl)propoxy)phenyl)methanesulfonamide], the IC50 lay in the range of 0.1 to 1 µM.

`COc1cc(Nc2ncc(F)c(Nc3cc(C)cc(C)c3NS(C)(=O)=O)n2)cc(OC)c1OC` [Example 186, N-(2-(5-fluoro-2-(3,4,5-trimethoxyphenylamino)pyrimidin-4-ylamino)-4,6-dimethylphenyl)methanesulfonamide] had an IC50 of 1 to 10 µM.

Compound `COc1ccc(Nc2nc(Nc3cc(OC)c(OC)c(OC)c3)ncc2Cl)c(NS(C)(=O)=O)c1F` [Example 187, N-(6-(5-chloro-2-(3,4,5-trimethoxyphenylamino)pyrimidin-4-ylamino)-2-fluoro-3-methoxyphenyl)methanesulfonamide] returned an IC50 of 0.1 to 1 µM.

Take `CS(=O)(=O)Nc1ccccc1Nc1nc(Nc2cccc(-n3cnnn3)c2)ncc1F` [Example 188, N-(2-(2-(3-(1H-tetrazol-1-yl)phenylamino)-5-fluoropyrimidin-4-ylamino)phenyl)methanesulfonamide]: the IC50 fell in the range of 1 to 10 µM.

The compound `Cc1nc(-c2cccc(Nc3ncc(F)c(Nc4ccccc4NS(C)(=O)=O)n3)c2)no1` [Example 189, N-(2-(5-fluoro-2-(3-(5-methyl-1,2,4-oxadiazol-3-yl)phenylamino)pyrimidin-4-ylamino)phenyl)methanesulfonamide] gave an IC50 of 1 to 10 µM.

Consider `CS(=O)(=O)Nc1ccccc1Nc1nc(Nc2cccc(-c3nnn[nH]3)c2)ncc1F` [Example 190, N-(2-(2-(3-(1H-tetrazol-5-yl)phenylamino)-5-fluoropyrimidin-4-ylamino)phenyl)methanesulfonamide], for which the IC50 was in the range of 1 to 10 µM.

`Cc1n[nH]c(-c2ccc(Nc3ncc(F)c(Nc4ccccc4NS(C)(=O)=O)n3)cc2)n1` [Example 191, N-(2-(5-fluoro-2-(4-(3-methyl-1H-1,2,4-triazol-5-yl)phenylamino)pyrimidin-4-ylamino)phenyl)methanesulfonamide] came in with an IC50 of 1 to 10 µM.

For `Cc1nc(-c2ccc(Nc3ncc(F)c(Nc4ccccc4NS(C)(=O)=O)n3)cc2)cs1` [Example 192, N-(2-(5-fluoro-2-(4-(2-methylthiazol-4-yl)phenylamino)pyrimidin-4-ylamino)phenyl)methanesulfonamide], the IC50 fell in the range of 1 to 10 µM.

Turning to `CS(=O)(=O)Nc1ccccc1Nc1nc(Nc2cccc(-c3cnco3)c2)ncc1F` [Example 193, N-(2-(5-fluoro-2-(3-(oxazol-5-yl)phenylamino)pyrimidin-4-ylamino)phenyl)methanesulfonamide], the IC50 lay in the range of 0.1 to 1 µM.

The compound `Cc1nnnn1-c1cccc(Nc2ncc(F)c(Nc3ccccc3NS(C)(=O)=O)n2)c1` [Example 194, N-(2-(5-fluoro-2-(3-(5-methyl-1H-tetrazol-1-yl)phenylamino)pyrimidin-4-ylamino)phenyl)methanesulfonamide] gave an IC50 of 1 to 10 µM.

As for `CS(=O)(=O)Nc1ccccc1Nc1nc(Nc2ccc(-n3cnnn3)cc2)ncc1F` [Example 195, N-(2-(2-(4-(1H-tetrazol-1-yl)phenylamino)-5-fluoropyrimidin-4-ylamino)phenyl)methanesulfonamide], the IC50 is 1 to 10 µM.

`CS(=O)(=O)Nc1ccccc1Nc1nc(Nc2ccc(C#N)cc2)ncc1F` [Example 196, N-(2-(2-(4-cyanophenylamino)-5-fluoropyrimidin-4-ylamino)phenyl)methanesulfonamide] came in with an IC50 of 1 to 10 µM.

The compound `Cc1nc(-c2ccc(Nc3ncc(F)c(Nc4ccccc4NS(C)(=O)=O)n3)cc2)no1` [Example 197, N-(2-(5-fluoro-2-(4-(5-methyl-1,2,4-oxadiazol-3-yl)phenylamino)pyrimidin-4-ylamino)phenyl)methanesulfonamide] came in with an IC50 of 1 to 10 µM.

For the compound `CS(=O)(=O)Nc1ccccc1Nc1nc(Nc2ccc(-n3cncn3)cc2)ncc1F` [Example 198, N-(2-(2-(4-(1H-1,2,4-triazol-1-yl)phenylamino)-5-fluoropyrimidin-4-ylamino)phenyl)methanesulfonamide], the IC50 fell in the range of 0.1 to 1 µM.

For the compound `Cc1nnnn1-c1ccc(Nc2ncc(F)c(Nc3ccccc3NS(C)(=O)=O)n2)cc1` [Example 199, N-(2-(5-fluoro-2-(4-(5-methyl-1H-tetrazol-1-yl)phenylamino)pyrimidin-4-ylamino)phenyl)methanesulfonamide], the IC50 fell in the range of 0.1 to 1 µM.

For `CS(=O)(=O)Nc1ccccc1Nc1nc(Nc2cccc(C#N)c2)ncc1F` [Example 200, N-(2-(2-(3-cyanophenylamino)-5-fluoropyrimidin-4-ylamino)phenyl)methanesulfonamide], the IC50 lay within 1 to 10 µM.

For the compound `Cn1ccc(-c2cccc(Nc3ncc(F)c(Nc4ccccc4NS(C)(=O)=O)n3)c2)n1` [Example 201, N-(2-(5-fluoro-2-(3-(1-methyl-1H-pyrazol-3-yl)phenylamino)pyrimidin-4-ylamino)phenyl)methanesulfonamide], the IC50 lay within 1 to 10 µM.

The compound `Cc1ccc(C)n1-c1cccc(Nc2ncc(F)c(Nc3ccccc3NS(C)(=O)=O)n2)c1` [Example 202, N-(2-(2-(3-(2,5-dimethyl-1H-pyrrol-1-yl)phenylamino)-5-fluoropyrimidin-4-ylamino)phenyl)methanesulfonamide] returned an IC50 of 1 to 10 µM.

The compound `CS(=O)(=O)Nc1ccccc1Nc1nc(Nc2cccc(-n3cnnn3)c2)ncc1Cl` [Example 203, N-(2-(2-(3-(1H-tetrazol-1-yl)phenylamino)-5-chloropyrimidin-4-ylamino)phenyl)methanesulfonamide] registered an IC50 of 0.1 to 1 µM.

As to `CS(=O)(=O)Nc1ccccc1Nc1nc(Nc2ccc(C#N)cc2)ncc1Cl` [Example 204, N-(2-(5-chloro-2-(4-cyanophenylamino)pyrimidin-4-ylamino)phenyl)methanesulfonamide], the IC50 is 1 to 10 µM.

As for `CS(=O)(=O)Nc1ccccc1Nc1nc(Nc2cccc(C#N)c2)ncc1Cl` [Example 205, N-(2-(5-chloro-2-(3-cyanophenylamino)pyrimidin-4-ylamino)phenyl)methanesulfonamide], the IC50 lay in the range of 0.1 to 1 µM.

With `CS(=O)(=O)Nc1ccccc1Nc1nc(Nc2cccc(-n3cccn3)c2)ncc1Cl` [Example 206, N-(2-(2-(3-(1H-pyrazol-1-yl)phenylamino)-5-chloropyrimidin-4-ylamino)phenyl)methanesulfonamide], the IC50 was in the range of 0.1 to 1 µM.

Turning to `CS(=O)(=O)Nc1ccccc1Nc1nc(Nc2ccc(-n3cccn3)cc2)ncc1Cl` [Example 207, N-(2-(2-(4-(1H-pyrazol-1-yl)phenylamino)-5-chloropyrimidin-4-ylamino)phenyl)methanesulfonamide], the IC50 fell in the range of 0.1 to 1 µM.

`Cc1nc(-c2cccc(Nc3ncc(Cl)c(Nc4ccccc4NS(C)(=O)=O)n3)c2)no1` [Example 208, N-(2-(5-chloro-2-(3-(5-methyl-1,2,4-oxadiazol-3-yl)phenylamino)pyrimidin-4-ylamino)phenyl)methanesulfonamide] registered an IC50 of 0.1 to 1 µM.

As for `Cc1cc(C)n(-c2cccc(Nc3ncc(Cl)c(Nc4ccccc4NS(C)(=O)=O)n3)c2)n1` [Example 209, N-(2-(5-chloro-2-(3-(3,5-dimethyl-M-pyrazol-1-yl)phenylamino)pyrimidin-4-ylamino)phenyl)methanesulfonamide], the IC50 was 1 to 10 µM.

For `Cc1cc(C)n(-c2ccc(Nc3ncc(Cl)c(Nc4ccccc4NS(C)(=O)=O)n3)cc2)n1` [Example 210, N-(2-(5-chloro-2-(4-(3,5-dimethyl-1H-pyrazol-1-yl)phenylamino)pyrimidin-4-ylamino)phenyl)methanesulfonamide], the IC50 was in the range of 0.1 to 1 µM.

For the compound `CS(=O)(=O)Nc1ccccc1Nc1nc(Nc2cccc(-n3cncn3)c2)ncc1Cl` [Example 211, N-(2-(2-(3-(1H-1,2,4-triazol-1-yl)phenylamino)-5-chloropyrimidin-4-ylamino)phenyl)methanesulfonamide], the IC50 was in the range of 0.1 to 1 µM.

As to `CS(=O)(=O)Nc1ccccc1Nc1nc(Nc2ccc(-n3cncn3)cc2)ncc1Cl` [Example 212, N-(2-(2-(4-(1H-1,2,4-triazol-1-yl)phenylamino)-5-chloropyrimidin-4-ylamino)phenyl)methanesulfonamide], the IC50 lay within 0.1 to 1 µM.

Consider `Cc1n[nH]c(-c2cccc(Nc3ncc(Cl)c(Nc4ccccc4NS(C)(=O)=O)n3)c2)n1` [Example 213, N-(2-(5-chloro-2-(3-(3-methyl-1H-1,2,4-triazol-5-yl)phenylamino)pyrimidin-4-ylamino)phenyl)methanesulfonamide], for which the half-maximal inhibitory concentration (IC50) fell in the range of 0.1 to 1 µM.
